Measurements published in patent US20250034139A1, “AMINE COMPOUNDS HAVING ANTI-INFLAMMATORY, ANTIFUNGAL, ANTIPARASITIC, AND ANTICANCER ACTIVITY” (PHARMA CINQ, LLC, priority 2013, published 2025).
≈ marks a conversion by molar mass, not a printed value. Where “and” joins values, the source holds several entries; their conditions need not be identical. Equal values may be shown once. Where a name gives a salt, the structure may show the parent alone.

How the values were obtained:
[1] = system: 4T1 murine breast cancer cells; test: Example S: in vitro anticancer screen, 4T1 cells, Wst1; type: cell-based, mouse; conditions: Mus musculus, 4T1, 18 h, 18 hr, Wst1; for viability at 1 µM: read-out: 4T1 1 μM, percent of cancer cell survival relative to vehicle treated cells; for viability at 5 µM: read-out: 4T1 5 μM, percent of cancer cell survival relative to vehicle treated cells
How it was run: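 4T1 cells seeded at 1×10^4/well were exposed to compound at 1 μM or 5 μM for 18 hr after plating. Wst1 tetrazolium dye was then added for about 2 hr and absorbance read at 450 nm (reference 630 nm). Values are percent survival relative to vehicle-treated cells.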

[2] = system: PC-3 prostate cancer cells; test: Example T: sensitisation of PC-3 cells to doxorubicin, oxaliplatin, paclitaxel or vincristine, Wst1; type: cell-based, human; conditions: PC-3 cells, 72 hours; for Doxorubicin 3.5 μM: percent cell survival / Oxaliplatin 100 μM: percent cell survival / Paclitaxel 50 μM: percent cell survival / Vincristine 100 nM: percent cell survival: chemotherapy agent alone normalized to 100%; for viability at 0.4 µM: compound 0.4 μM alone; for viability at 2.5 µM: compound 2.5 μM alone
[3] = system: PC3 human prostate cancer cells; test: Example S: in vitro anticancer screen, PC-3 cells, Wst1; type: cell-based; conditions: Homo sapiens, PC-3, approximately 20 hours, Wst1, read-out: PC-3, percent of cancer cell survival relative to vehicle treated cells
How it was run: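 PC-3 cells, 2×10^4 cells/well, exposed ~20 h to vehicle or compound at 0.4, 0.5 or 2.5 μM as specified per compound. Wst1 dye added for 2 h; absorbance 450 nm (reference 630 nm), triplicates. Values are percent cell survival versus vehicle-treated cells.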

THP-1 cells = test: Example D: LPS-triggered THP-1 cell death assay, acute/5-hour and chronic/48-hour; type: cell-based, Human; conditions: for Viable cell percent change, Chronic/48-hour, Mean: 10 ng/ml LPS, 0.1 μM test compound; for activity relative to AC in the LPS-triggered THP-1 cell death assay, in words: 0.1 μM, 5-hour and 48-hour time points
Experimental: Compounds of the invention were tested at 0.1 μM versus AC in the LPS-triggered THP-1 cell death assay. Both acute/5-hour and chronic/48-hour phases of cell death were assessed. Compounds were screened in batches with DMSO as the negative control and AC as the high activity control.

Trichophyton rubrum = test: Example J: Trichophyton rubrum growth inhibition, scoring by eye; type: cell-based; conditions: Trichophyton rubrum, 144 h; 6 days at 30° C., tested 6 to 40 μM; read-out: MIC, μM (maximum inhibition concentration, scoring by eye)
How it was run: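 Filtered T. rubrum suspension from PDA plates (grown 4 days, 30 °C) treated with diluted compounds in triplicate, incubated 6 days at 30 °C. Plates imaged; MIC scored by eye.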

[4] = Homo sapiens, Wst1, vehicle = 100, read-out: No Chemo: percent cell survival
[5] = compound 0.4 μM + doxorubicin 3.5 μM
[6] = compound 0.4 μM + oxaliplatin 100 μM
[7] = compound 0.4 μM + paclitaxel 50 μM
[8] = compound 0.4 μM + vincristine 100 nM
[9] = compound 2.5 μM + doxorubicin 3.5 μM
[10] = compound 2.5 μM + oxaliplatin 100 μM
[11] = compound 2.5 μM + paclitaxel 50 μM
[12] = compound 2.5 μM + vincristine 100 nM

MIC (Trichophyton rubrum) [µM] | Structure (SMILES) | viability at 1 µM [1] [%] | viability at 5 µM [1] [%] | viability at 0.4 µM [2, 4] [%] | Doxorubicin 3.5 μM: percent cell survival [2, 5] [%] | Oxaliplatin 100 μM: percent cell survival [2, 6] [%] | Paclitaxel 50 μM: percent cell survival [2, 7] [%] | Vincristine 100 nM: percent cell survival [2, 8] [%] | viability at 0.4 µM [3] [%] | Viable cell percent change, Chronic/48-hour, Mean (THP-1 cells) [%] | other results
– | CCCCCCOc1ccc(CNc2ccnc3ccccc23)cc1 [AA, N-[4-(Hexyloxy)benzyl]quinolin-4-amine] | 69.1 | 31.2 | – | – | – | – | – | – | – | viability at 1.5 µM ([2]; Homo sapiens, compound 1.5 μM alone, Wst1, vehicle = 100, read-out: No Chemo: percent cell survival): 82.6%; Doxorubicin 3.5 μM: percent cell survival ([2]; compound 1.5 μM + doxorubicin 3.5 μM): 38.6%; Oxaliplatin 100 μM: percent cell survival ([2]; compound 1.5 μM + oxaliplatin 100 μM): 31%; Paclitaxel 50 μM: percent cell survival ([2]; compound 1.5 μM + paclitaxel 50 μM): 22.2%; Vincristine 100 nM: percent cell survival ([2]; compound 1.5 μM + vincristine 100 nM): 43%; viability at 1.5 µM ([3]; 1.5 μM): 82.6%
12 (≈ 4.35 µg/mL) | Cc1ccccc1OCCCCCCCCNc1ccnc2ccccc12 [BG, N-[8-(o-Tolyloxy)octyl]quinolin-4-amine] | 17.4 | 17.8 | 99.1 | 40.1 | 36.2 | 59.2 | 71.1 | 99.1 | – | Viable cell percent change, Chronic/48-hour, Mean (THP-1 cells; 0.1 µM): 38.39% and 31.07%
18 (≈ 6.6 µg/mL) | Fc1ccc(OCCCCCCCCNc2ccnc3ccccc23)cc1 [BJ, N-[8-(4-Fluorophenoxy)octyl]quinolin-4-amine] | 16.9 | 31.3 | 23.9 | 56.8 | 64.1 | 50.2 | 50.8 | 23.9 | 18.03 | –
12 (≈ 3.69 µg/mL) | CCCCCCOCCCCCCCCNc1ccncn1 [AU, N-[8-(Hexyloxy)octyl]pyrimidin-4-amine] | 93 | 23.2 | – | – | – | – | – | – | 16.86 | viability at 2.5 µM [2, 4]: 32.4%; Doxorubicin 3.5 μM: percent cell survival [2, 9]: 25.7%; Oxaliplatin 100 μM: percent cell survival [2, 10]: 41.1%; Paclitaxel 50 μM: percent cell survival [2, 11]: 34.2%; Vincristine 100 nM: percent cell survival [2, 12]: 32%; viability at 2.5 µM [3]: 32.4%
18 (≈ 6.04 µg/mL) | CCCCCCOc1cccc(CNc2ncnc3ccccc23)c1 [AK, N-[3-(Hexyloxy)benzyl]quinazolin-4-amine] | – | – | – | – | – | – | – | – | – | activity relative to AC in the LPS-triggered THP-1 cell death assay, in words (THP-1 cells): equivalent activity to AC at both the 5-hour and 48-hour time points
18 (≈ 6.53 µg/mL) | Cc1ccc(OCCCCCCCCNc2ccnc3ccccc23)cc1 [BF, N-[8-(p-Tolyloxy)octyl]quinolin-4-amine] | 17.2 | 19 | 92.8 | 40.9 | 37.2 | 57.1 | 74.1 | 92.8 | 31.64 | –
25 (≈ 9.26 µg/mL) | CCCCCCOCCCCCCCCNc1cc(C)nc2ccccc12 [AV, N-[8-(Hexyloxy)octyl]-2-methylquinolin-4-amine] | 136 | 30 | – | – | – | – | – | – | 38.76 | viability at 2.5 µM [2, 4]: 38.2%; Doxorubicin 3.5 μM: percent cell survival [2, 9]: 62.6%; Oxaliplatin 100 μM: percent cell survival [2, 10]: 59.3%; Paclitaxel 50 μM: percent cell survival [2, 11]: 34.4%; Vincristine 100 nM: percent cell survival [2, 12]: 37.2%; viability at 2.5 µM [3]: 38.2%
18 (≈ 6.81 µg/mL) | CCCCCCOc1cccc(OCCCNc2ccnc3ccccc23)c1 [AZ, N-{3-[3-(Hexyloxy)phenoxy]propyl}quinolin-4-amine] | 52.2 | 29.1 | 95.4 | 33.6 | 26.9 | 54.1 | 71.2 | 95.4 | 50.12 | –
18 (≈ 6.6 µg/mL) | Fc1cccc(OCCCCCCCCNc2ccnc3ccccc23)c1 [BI, N-[8-(3-Fluorophenoxy)octyl]quinolin-4-amine] | 30 | 17.3 | 111 | 76.6 | 84.3 | 71.7 | 81.7 | 111 | 27.30 | –
12 (≈ 4.35 µg/mL) | Cc1cccc(OCCCCCCCCNc2ccnc3ccccc23)c1 [BE, N-[8-(m-Tolyloxy)octyl]quinolin-4-amine] | 23.1 | 18.7 | 99.1 | 44.1 | 41.2 | 64 | 74.9 | 99.1 | 33.86 | –
– | CCCCCCOc1ccc(CNc2ccnc3ccccc23)cc1F [BK, N-[3-Fluoro-4-(hexyloxy)benzyl]quinolin-4-amine] | – | – | 29.2 | 32.1 | 27.3 | 20.6 | 28.3 | 29.2 | 43.69 | activity relative to AC in the LPS-triggered THP-1 cell death assay, in words (THP-1 cells): equivalent activity to AC at both the 5-hour and 48-hour time points
25 (≈ 8.29 µg/mL) | CCCCCCOCCCCCCCCn1cnc2cnccc21 [AS, 1-[8-(Hexyloxy)octyl]-1H-imidazo[4,5-c]pyridine] | 94.6 | 23.1 | – | – | – | – | – | – | 3.86 | viability at 2.5 µM [2, 4]: 31.1%; Doxorubicin 3.5 μM: percent cell survival [2, 9]: 51.1%; Oxaliplatin 100 μM: percent cell survival [2, 10]: 55.5%; Paclitaxel 50 μM: percent cell survival [2, 11]: 36.8%; Vincristine 100 nM: percent cell survival [2, 12]: 30.8%; viability at 2.5 µM [3]: 31.1%
> 40 | CCCCCCOCCCCCCCC[n+]1ccc(N)cc1 [BO, 4-Amino-1-[8-(hexyloxy)octyl]pyridinium salts] | 20.7 | 18.6 | 13.4 | 82.4 | 28.4 | 28.2 | 18.4 | 13.4 | 28.35 | –

Structure (SMILES) | MIC (Trichophyton rubrum) [µM] | viability at 1 µM [1] [%] | viability at 5 µM [1] [%] | viability at 0.4 µM [2, 4] [%] | Doxorubicin 3.5 μM: percent cell survival [2, 5] [%] | Oxaliplatin 100 μM: percent cell survival [2, 6] [%] | Paclitaxel 50 μM: percent cell survival [2, 7] [%] | Vincristine 100 nM: percent cell survival [2, 8] [%] | viability at 0.4 µM [3] [%] | Viable cell percent change, Chronic/48-hour, Mean (THP-1 cells) [%] | other results
CCCCOCCCCCCCCCCn1cnc2cnccc21 [AT, 1-(10-Butoxydecyl)-1H-imidazo[4,5-c]pyridine] | 6 (≈ 1.99 µg/mL) | 31.7 | 18.7 | 34.6 | 65.4 | 76.8 | 57.4 | 32.9 | 34.6 | 30.34 | –
